Test results: patent US9732119B2, “Immunomodulators” (BRISTOL-MYERS SQUIBB COMPANY, priority 2014, dated 2017)
Positions of bridges follow the written chain, without caps; N, C: chain ends. Non-standard residues stand in square brackets, D forms with d. Residues, ends and D or L forms follow the SMILES beside them. Trp(1-CH2COOH) = N[C@@H](Cc1cn(CC(=O)O)c2ccccc12)C(=O)O; Phe(4-Cl) = N[C@@H](Cc1ccc(Cl)cc1)C(=O)O; Phe(4-Me) = Cc1ccc(C[C@H](N)C(=O)O)cc1; Hyp = O=C(O)[C@@H]1C[C@@H](O)CN1; Aad = N[C@@H](CCCC(=O)O)C(=O)O; NMeNle = CCCC[C@H](NC)C(=O)O; dOrn = NCCC[C@@H](N)C(=O)O; Pip = O=C(O)[C@@H]1CCCCN1; Orn = NCCC[C@H](N)C(=O)O; Dab = NCC[C@H](N)C(=O)O; Dap = NC[C@H](N)C(=O)O

Biological target: T1, PD-1-Ig binding to PD-L1-TVMV-His (PD-L1-His) (Homo sapiens, UniProt Q9NZQ7)
T1 construct: hPDL1(19-239)-TVMV-His; made in house; host or cells: HEK293T cells
Test: PD-1/PD-L1 Homogenous Time-Resolved Fluorescence (HTRF) binding assay
Conditions: PD-1-Ig (20 nM) / PD-L1-His (10 nM); range classes
Source text: The ability of the macrocyclic peptides of the present disclosure to bind to PD-L1 was investigated using a PD-1/PD-L1 Homogenous Time-Resolved Fluorescence (HTRF) binding assay.
Homogenous Time-Resolved Fluorescence (HTRF) Assays of Binding of Soluble PD-1 to Soluble PD-L1. Soluble PD-1 and soluble PD-L1 refers to proteins with carboxyl-end truncations that remove the transmembrane-spanning regions and are fused to heterologous sequences, specifically the Fc portion of the human immunoglobuling G sequence (Ig) or the hexahistidine epitope tag (His). All binding studies were performed in an HTRF assay buffer consisting of dPBS supplemented with 0.1% (w/v) bovine serum albumin and 0.05% (v/v) Tween-20. For the PD-1-Ig/PD-L1-His binding assay, inhibitors were pre-incubated with PD-L1-His (10 nM final) for 15 m in 4 μl of assay buffer, followed by addition of PD-1-Ig (20 nM final) in 1 μl of assay buffer and further incubation for 15 m. PD-L1 fusion proteins from either human, cynomologous macaques, mouse, or other species were used. HTRF detection was achieved using europium crypate-labeled anti-Ig monoclonal antibody (1 nM final) and allophycocyanin (APC) labeled anti-His monoclonal antibody (20 nM final). Antibodies were diluted in HTRF detection buffer and 5 μl was dispensed on top of binding reaction. […] Additional binding assays were established between PD-1-Ig/PD-L2-His (20 and 5 nM, respectively), CD80-His/PD-L1-Ig (100 and 10 nM, respectively) and CD80-His/CTLA4-Ig (10 and 5 nM, respectively).
Recombinant Proteins. […] Human PD-L2-His (Sino Biologicals), CD80-His (Sino Biologicals), CTLA4-Ig (RnD Systems) were all obtained through commercial sources.

T1 sequence (Q9NZQ7 with tags, fused parts or gaps): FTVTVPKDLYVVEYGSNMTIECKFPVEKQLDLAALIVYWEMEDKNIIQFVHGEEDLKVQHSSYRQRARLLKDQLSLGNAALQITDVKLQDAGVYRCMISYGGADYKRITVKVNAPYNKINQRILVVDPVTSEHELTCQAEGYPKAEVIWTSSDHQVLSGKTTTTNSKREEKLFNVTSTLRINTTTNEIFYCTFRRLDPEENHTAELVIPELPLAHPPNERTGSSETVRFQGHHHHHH

SMILES | IC50 [nM]
CCCC[C@H]1C(=O)N(C)[C@@H](CCCC)C(=O)N[C@@H](CC(C)C)C(=O)N[C@H](C(N)=O)CNCC(=O)N[C@@H](Cc2ccc(O)cc2)C(=O)N2CCCC[C@H]2C(=O)N[C@@H](CC(=O)O)C(=O)N2CCC[C@H]2C(=O)N[C@@H](CCC(N)=O)C(=O)N[C@@H](CC(=O)O)C(=O)N2C[C@H](O)C[C@H]2C(=O)N[C@@H](Cc2c[nH]c3ccccc23)C(=O)N[C@@H](CC(N)=O)C(=O)N[C@@H](Cc2cn(CC(=O)O)c3ccccc23)C(=O)N1C [Example 9035] | 1 to 9.9
CCCC[C@H]1C(=O)N(C)[C@@H](CCCC)C(=O)N[C@@H](CC(C)C)C(=O)N[C@H](C(N)=O)CCCC(=O)N[C@@H](Cc2ccc(Cl)cc2)C(=O)N2CCCC[C@H]2C(=O)N[C@@H](CC(=O)O)C(=O)N2CCC[C@H]2C(=O)N[C@@H](CN)C(=O)N[C@@H](CC(C)C)C(=O)N2C[C@H](O)C[C@H]2C(=O)N[C@@H](Cc2c[nH]c3ccccc23)C(=O)N[C@@H](CCN)C(=O)N[C@@H](Cc2cn(CC(=O)O)c3ccccc23)C(=O)N1C [Example 10556] ([Phe(4-Cl)][Pip]DP[Dap]L[Hyp]W[Dab][Trp(1-CH2COOH)][NMeNle][NMeNle]L[Aad]-NH2; lactam N-14) | 1 to 9.9
CCCC[C@H]1C(=O)N(C)[C@@H](CCCC)C(=O)N[C@@H](CC(C)C)C(=O)N[C@H](C(N)=O)CNCC(=O)N[C@@H](Cc2ccc(O)cc2)C(=O)N2CCCC[C@H]2C(=O)N[C@@H](CC(N)=O)C(=O)N2CCC[C@H]2C(=O)N[C@@H](Cc2c[nH]cn2)C(=O)N[C@@H](CCC(=O)O)C(=O)N2C[C@H](O)C[C@H]2C(=O)N[C@@H](Cc2c[nH]c3ccccc23)C(=O)N[C@@H](C)C(=O)N[C@@H](Cc2cn(CC(=O)O)c3ccccc23)C(=O)N1C [Example 9050] | 1 to 9.9
CCCC[C@H]1C(=O)N(C)[C@@H](CCCC)C(=O)N[C@@H](CC(C)C)C(=O)N[C@H](C(N)=O)CCCC(=O)N[C@@H](Cc2ccc(Cl)cc2)C(=O)N2CCCC[C@H]2C(=O)N[C@@H](CC(N)=O)C(=O)N2CCC[C@H]2C(=O)N[C@@H](CN)C(=O)N[C@@H](CC(C)C)C(=O)N2C[C@H](O)C[C@H]2C(=O)N[C@@H](Cc2c[nH]c3ccccc23)C(=O)N[C@@H](CCN)C(=O)N[C@@H](Cc2cn(CC(=O)O)c3ccccc23)C(=O)N1C [Example 10534] ([Phe(4-Cl)][Pip]NP[Dap]L[Hyp]W[Dab][Trp(1-CH2COOH)][NMeNle][NMeNle]L[Aad]-NH2; lactam N-14) | 1 to 9.9
CCCC[C@H]1C(=O)N(C)[C@@H](CCCC)C(=O)N[C@@H](CCC(=O)O)C(=O)N[C@H](C(=O)NCC(N)=O)CNCC(=O)N[C@@H](Cc2ccc(F)cc2)C(=O)N(C)[C@@H](C)C(=O)N[C@@H](CC(N)=O)C(=O)N2CCC[C@H]2C(=O)N[C@@H](CCC(N)=O)C(=O)N[C@@H](CC(=O)O)C(=O)N2C[C@H](O)C[C@H]2C(=O)N[C@@H](Cc2c[nH]c3ccccc23)C(=O)N[C@@H](CC(N)=O)C(=O)N[C@@H](Cc2cn(CC(=O)O)c3ccccc23)C(=O)N1C [Example 9023] | 10 to 99
CCCC[C@H]1C(=O)N(C)[C@@H](CCCC)C(=O)N[C@@H](CC(C)C)C(=O)N[C@H](C(N)=O)COCC(=O)N[C@@H](Cc2ccc(C)cc2)C(=O)N2CCCC[C@H]2C(=O)N[C@@H](CC(N)=O)C(=O)N2CCC[C@H]2C(=O)N[C@@H](CN)C(=O)N[C@@H](CCC(=O)O)C(=O)N2C[C@H](O)C[C@H]2C(=O)N[C@@H](Cc2c[nH]c3ccccc23)C(=O)N[C@@H](CCN)C(=O)N[C@@H](Cc2cn(CC(=O)O)c3ccccc23)C(=O)N1C [Example 10538] | 1 to 9.9
CCCC[C@H]1C(=O)N(C)[C@@H](CCCC)C(=O)N[C@@H](CC(C)C)C(=O)NCCC[C@@H](N)C(=O)N[C@@H](Cc2ccc(O)cc2)C(=O)N2CCCC[C@H]2C(=O)N[C@@H](CC(N)=O)C(=O)N2CCC[C@H]2C(=O)N[C@@H](CN)C(=O)N[C@@H](CC(C)C)C(=O)N2C[C@H](O)C[C@H]2C(=O)N[C@@H](Cc2c[nH]c3ccccc23)C(=O)N[C@@H](CCN)C(=O)N[C@@H](Cc2cn(CC(=O)O)c3ccccc23)C(=O)N1C [Example 10558] (H-[dOrn]Y[Pip]NP[Dap]L[Hyp]W[Dab][Trp(1-CH2COOH)][NMeNle][NMeNle]L; lactam 1-C) | 10 to 99
CCCC[C@H]1C(=O)N(C)[C@@H](CCCC)C(=O)N[C@@H](CC(C)C)C(=O)NCCC[C@H](N)C(=O)N[C@@H](Cc2ccc(C)cc2)C(=O)N2CCCC[C@H]2C(=O)N[C@@H](CC(N)=O)C(=O)N2CCC[C@H]2C(=O)N[C@@H](CN)C(=O)N[C@@H](CCC(=O)O)C(=O)N2C[C@H](O)C[C@H]2C(=O)N[C@@H](Cc2c[nH]c3ccccc23)C(=O)N[C@@H](CCN)C(=O)N[C@@H](Cc2cn(CC(=O)O)c3ccccc23)C(=O)N1C [Example 10547] (H-[Orn][Phe(4-Me)][Pip]NP[Dap]E[Hyp]W[Dab][Trp(1-CH2COOH)][NMeNle][NMeNle]L; lactam 1-C) | 10 to 99
CCCC[C@H]1C(=O)N(C)[C@@H](CCCC)C(=O)N[C@@H](CC(C)C)C(=O)N[C@H](C(N)=O)CNCC(=O)N[C@@H](Cc2ccc(F)cc2)C(=O)N2CCCC[C@H]2C(=O)N[C@@H](CC(=O)O)C(=O)N2CCC[C@H]2C(=O)N[C@@H](CCC(N)=O)C(=O)N[C@@H](CCC(=O)O)C(=O)N2C[C@H](O)C[C@H]2C(=O)N[C@@H](Cc2c[nH]c3ccccc23)C(=O)N[C@@H](CC(N)=O)C(=O)N[C@@H](Cc2cn(CC(=O)O)c3ccccc23)C(=O)N1C [Example 9040] | 1 to 9.9
CCCC[C@H]1C(=O)N(C)[C@@H](CCCC)C(=O)N[C@@H](CC(C)C)C(=O)NCCC[C@@H](N)C(=O)N[C@@H](Cc2ccc(O)cc2)C(=O)N2CCCC[C@H]2C(=O)N[C@@H](CC(N)=O)C(=O)N2CCC[C@H]2C(=O)N[C@@H](CN)C(=O)N[C@@H](CCC(=O)O)C(=O)N2C[C@H](O)C[C@H]2C(=O)N[C@@H](Cc2c[nH]c3ccccc23)C(=O)N[C@@H](CCN)C(=O)N[C@@H](Cc2cn(CC(=O)O)c3ccccc23)C(=O)N1C [Example 10568] (H-[dOrn]Y[Pip]NP[Dap]E[Hyp]W[Dab][Trp(1-CH2COOH)][NMeNle][NMeNle]L; lactam 1-C) | 1 to 9.9
CCCC[C@H]1C(=O)N(C)[C@@H](CCCC)C(=O)N[C@@H](CCC(=O)O)C(=O)N[C@H](C(N)=O)CNCC(=O)N[C@@H](Cc2ccc(O)cc2)C(=O)N2CCCC[C@H]2C(=O)N[C@@H](CC(N)=O)C(=O)N2CCC[C@H]2C(=O)N[C@@H](Cc2c[nH]cn2)C(=O)N[C@@H](CC(=O)O)C(=O)N2C[C@H](O)C[C@H]2C(=O)N[C@@H](Cc2c[nH]c3ccccc23)C(=O)N[C@@H](C)C(=O)N[C@@H](Cc2cn(CC(=O)O)c3ccccc23)C(=O)N1C [Example 9054] | 1 to 9.9
CCCC[C@H]1C(=O)N(C)[C@@H](CCCC)C(=O)N[C@@H](CCC(=O)O)C(=O)N[C@H](C(=O)NCC(N)=O)CCNCC(=O)N[C@@H](Cc2ccc(O)cc2)C(=O)N(C)[C@@H](C)C(=O)N[C@@H](CC(=O)O)C(=O)N2CCC[C@H]2C(=O)N[C@@H](Cc2cnc[nH]2)C(=O)N[C@@H](CCC(N)=O)C(=O)N2C[C@H](O)C[C@H]2C(=O)N[C@@H](Cc2c[nH]c3ccccc23)C(=O)N[C@@H](CO)C(=O)N[C@@H](Cc2c[nH]c3ccccc23)C(=O)N1C [Example 10023] | 100 to 10000
